Measured values from PMC6199251, “Oncolysis with DTT-205 and DTT-304 generates immunological memory in cured animals” (Cell Death & Disease, 2018).

Experiments:
[1] = system: caspase-3; experiment: Caspase-3 activation (immunostaining of cleaved caspase-3); type: cell-based, human; conditions: U2OS, 0.65 to 10 µM DTT peptides; staurosporine as positive control
Method: Fig. 3 Cell death induced by DTT-205 and DTT-304. Human osteosarcoma U2OS cells were treated with 0.65 to 10 µM DTT peptides for the indicated time and following assessed for the activation of caspase-3 (CASP3). The pan-kinase inhibitor staurosporine (STS) was used as positive control. Representative images (a, b) and quantifications of CASP3 activation (c, d) are depicted while pyknosis was assessed by measuring the decrease in Hoechst 33342-stained nuclear area (e, f) by conventional microscopy (size bar equals 10 µm; mean ± SD of triplicate assessments, Student’s t test, […], **p < 0.01, ***p < 0.001). In order to assess the cell death modality, U2OS cells were pretreated with the ferroptosis inhibitor ferrostatin-1 (FER-1), the pan-caspase inhibitor zVAD-fmk (zVAD) or the antioxidants N-actylcystein (NAC) and reduced glutathione (GSH) before the addition of 2.5 µM of DTT peptides (g, h). […] Mouse embryonic fibroblasts (MEFs) that were either wild type, single- or double knockout for the proapoptotic proteins Bax and/or Bak were treated with 0.65 to 10 µM of DTT-205 or DTT-304 and viability was assessed by means of an exclusion dye in epifluorescence microscopy (k, l; mean ± SD of triplicate assessments. Student’s t test, […], **p < 0.01, ***p < 0.001). […]

[2] = system: U2OS cells; experiment: Lipid droplet formation (electron microscopy, Nile Red staining); type: cell-based, human; conditions: 0.65 to 10 µM, 6 h, epifluorescence microscopy
Method: Fig. 1 DTT peptides induce the formation of lipid droplets. Human osteosarcoma U2OS cells were treated with 2.5 µM of either DTT-205 or DTT-304 for 6 h. Cells were fixed and subjected to electron microscopy. The overview micrographs in the upper panel depict necrotic morphologies (N) of some of the treated cells and the high magnification micrographs in the lower panel show the formation of lipid droplets (L) in intact cells. Size bars equals 10 µm (upper panel) and 1 µm (lower panel). Representative images (a) and quantifications (b, c) are depicted (mean ± SD of a minimum of five view fields). The formation of lipid droplets in response to increasing doses from 0.65 to 10 µM DTT peptides was quantified by means of the lipophilic dye Nile Red at 6 h and 24 h post treatment in epifluorescence microscopy. Representative images (d) and quantifications (e, f) are shown (mean ± SD of triplicate assessments, Student’s t test, […], **p < 0.01). Temperature dependency of the lipid droplet formation was assessed by keeping the cell cultures upon treatment with 0.65 to 10 µM DTT-205 (g) and DTT-304 (h) at the indicated temperature for 6 h before Nile Red staining. […]
Figure S2. […] The formation of lipid droplets in response to increasing doses from 0.65 to 10 µM DTT-peptides was quantified by means of the lipophilic dye Nile Red in epifluorescence microscopy. […]

[3] = cited from earlier work
Source text: When added to human cancer cells, DTT-205 or DTT-304 stimulated a necrosis-like disruption of cellular morphology. […] Staining with the red fluorescent lipophilic dye Nile red confirmed the formation of lipid droplets in the cytoplasm of cells treated with DTT-205 or DTT-304 that occurred in a time and dose-dependent fas ...

Molecule | caspase-3 activation (fraction of cells positive for mature caspase-3 fragment) [1] | formation of lipid droplets [2] | cytotoxic potential in the presence of serum [3]
CN[C@@H]1C[C@H]2O[C@@](C)([C@@H]1OC)n1c3ccccc3c3c4c(c5c6ccccc6n2c5c31)C(=O)NC4 [staurosporine] | a significant fraction of cells |  | 
LTX-315 |  | but not the LTX compounds, induced lipid droplets | lost their cytotoxic potential in the presence of serum
